US20130085133A1, “ANTI-VIRAL TREATMENT AND ASSAY TO SCREENFOR ANTI-VIRAL AGENT” (Sourthern Research Institute Office of Commercialization …, priority 2010, published 2013)

Legend:
RSV, Long strain = experiment: virus titer Reduction (VTR) assay, progeny virus TCID50 in HEp-2 cells; type: cell-based, respiratory syncytial virus (RSV); conditions: human respiratory syncytial virus, 48 h; for log reduction at 5 µg/mL: 5 ug/ml compound, read-out: TCID-50 Reduction @ 5 ug/ml; for log reduction at 12 µg/mL: 12 ug/ml compound, read-out: TCID-50 Reduction 12 @ ug/ml; for log reduction at 25 µg/mL: 25 ug/ml compound, read-out: TCID-50 Reduction 25 @ ug/ml; for log reduction at 50 µg/mL: 50 ug/ml compound, read-out: TCID-50 Reduction @ 50 ug/ml; for log reduction at 3 µg/mL: 3 ug/ml compound, read-out: TCID-50 Reduction @ 3 ug/ml; for log reduction at 6 µg/mL: 6 ug/ml compound, read-out: TCID-50 Reduction 6 @ ug/ml
Experimental: Four concentrations of each compound were evaluated (Table 3). Briefly, the four concentrations of test compounds, HEp-2 cells (8×10^3 per well) and RSV, Long strain (MOI=0.9) were plated in 96 well microtiter plates. The plates were incubated for 48 hours. Fifteen (15) μl of 10-fold serial dilution of progeny virus containing medium from respective samples (test compound treated or untreated) was transferred to infect fresh HEp-2 cells (2×10^3 cells per well) in a 384 well format. Plates were incubated for an additional 6 days and luminescence was measured using Cell Titer-Glo reagent (Promega Inc.) to determine cell viability. […] A well showing lesser than 50% cell viability was regarded as positive for virus infection. Four replicates for each virus dilution were analyzed and the number of virus positive wells (out of 4) was plotted versus the dilution. TCID50 was calculated to be the dilution that produced two positive wells out of four using ActivityBase software (IDBS, Inc, Guilford, UK).

[1] = cytotoxicity assay (percent viability of HEp-2 cells, Cell Titer-Glo); conditions: human, HEp-2 cells
[2] = test system: respiratory syncytial virus (RSV) strain Long; experiment: microbe, parasite or virus in culture; conditions: human respiratory syncytial virus, HEp-2, 144 h
Experimental: The assay measures RSV virus-induced CPE in HEp-2 cells using cell viability as the end point.
Two vials of RSV (strain Long) containing 1×10^7 pfu/mL was thawed using an Eppendorf thermomixer for 13 min at 15° C., with shaking at 350 rpm. […] The cells were incubated for 18-20 h at 37° C., 5% CO2, 90% relative humidity. The medium was aspirated and the cells washed with 10 mL PBS without Mg^2+ or Ca^2+. Cells were harvested from flasks using 0.25% trypsin-EDTA. The cells were resuspended in a freezing medium of 95% fetal calf serum and 5% DMSO to a final cell density of 2×10^6 cells/mL. One mL aliquots of this virus infected cell suspension were dispensed to cryovials and cells were rate frozen to −80° C. Frozen infected cells were then transferred to −150° C. for long term storage.
Test compounds were evaluated by measuring their antiviral activity, cell toxicity, and selectivity. Test compounds were serially diluted in a plate to plate matrix or “stacked plate” matrix. All 320 compounds in a source plate were diluted together resulting in a 10 point dose response dilution series. It was visualized as a serial dilution series proceeding vertically through a stack of plates with the high dose plate on top and the low dose plate on the bottom.
Cells were harvested and resuspended to 80,000 cells per ml in Complete DMEM/F12.
Cells were thawed in a room temperature water bath with gentle agitation. The tube was inverted 5-10. Cells were diluted to 80,000 cells per ml by adding the contents of the vial to 24 ml of cold (4° C.) media.
Twenty five ul of uninfected HEp-2 cells were plated in the cell control wells. Frozen infected cells were combined with uninfected HEp-2 cells at a 1:100 ratio. Twenty five ul of the cell mixture was added to the virus control and compound wells. All cell plating was conducted using a Matrix WellMate and cells were maintained at room temperature with stirring during the plating process. The assay plates were incubated for six days at 37° C., 5% CO2 and 90% relative humidity.
Following the six day incubation period, the assay plates were equilibrated to room temperature for 30 min and an equal volume (30 μL) of Cell Titer-Glo reagent (Promega Inc.) was added to each well using a WellMate (Matrix, Hudson, N.H.) and plates were incubated for an additional 10 min at room temperature. At the end of the incubation, luminescence was measured using a Perkin Elmer Envision™ multi-label reader (PerkinElmer, Wellesley, Mass.) with an integration time of 0.1 s.
Data was analyzed using ActivityBase software (IDBS, Inc, Guilford, UK). thirty two control wells containing cells only and twenty four wells containing cells and virus were included on each assay plate and used to calculate Z′ value for each plate and to normalize the data on a per plate basis. […] Eight ribavirin positive control wells were included on each plate for quality control purposes, but were not used in Z′ calculations. […] In the toxicity assay, results are described as percent viability and the calculation is the same.
An EC50 (for CPE inhibition) and IC50 (for cell viability) were calculated for each substance using the 4 parameter Levenburg-Marquardt algorithm with parameter A locked at 0 and parameter B locked at 100. Standard deviation, normalized chi2 and hill slope were used to evaluate the curves. Values were not extrapolated beyond the tested range of concentrations.

SMILES	CC50 at 6 days [1]	EC50 [2]	also measured
CC1(C)O[C@@H]2[C@H](O1)[C@@H](CO)O[C@H]2n1ncc(=O)[nH]c1=O [AB00174524]	> 50 µM	3.25 µM	log reduction at 5 µg/mL (RSV, Long strain): 4.58; log reduction at 12 µg/mL (RSV, Long strain): 5.98; log reduction at 25 µg/mL (RSV, Long strain): 5.56; log reduction at 50 µg/mL (RSV, Long strain): 5.87
CCCSC1=C(C#N)C(c2ccco2)C(C(=O)Nc2ccccc2)=C(C)N1 (centres unmarked) [AB00276073]	> 25 mg/L	5.12 mg/L	log reduction at 3 µg/mL (RSV, Long strain): 1; log reduction at 6 µg/mL (RSV, Long strain): 0.63; log reduction at 12 µg/mL (RSV, Long strain): 1.39; log reduction at 25 µg/mL (RSV, Long strain): 3.57
CC1=Nc2ccc(C)c3nc(C)cc(c23)N1c1ccc(C)cc1 [AB00280244]	> 25 mg/L	8.62 mg/L	log reduction at 3 µg/mL (RSV, Long strain): 1.55; log reduction at 6 µg/mL (RSV, Long strain): 1.36; log reduction at 12 µg/mL (RSV, Long strain): 1.55; log reduction at 25 µg/mL (RSV, Long strain): 2.89
O=C(Nc1ccc(Nc2ccccc2)cc1)c1ccccc1Cl [AB00280499]	> 25 mg/L	6.6 mg/L	log reduction at 3 µg/mL (RSV, Long strain): 2.55; log reduction at 6 µg/mL (RSV, Long strain): 2.38; log reduction at 12 µg/mL (RSV, Long strain): 3.69; log reduction at 25 µg/mL (RSV, Long strain): 2.96
CCOC(=O)Cc1nnc(Nc2ccc(C)cc2)c2ccccc12 [AB00285095]	> 25 mg/L	9.72 mg/L	log reduction at 3 µg/mL (RSV, Long strain): 1; log reduction at 6 µg/mL (RSV, Long strain): 1.32; log reduction at 12 µg/mL (RSV, Long strain): 1.99; log reduction at 25 µg/mL (RSV, Long strain): 2.56
O=C(CCSc1ccccc1)Nc1ccccc1C(=O)O [AB00289457]	> 25 mg/L	2.97 mg/L	log reduction at 3 µg/mL (RSV, Long strain): 1; log reduction at 6 µg/mL (RSV, Long strain): 4.9; log reduction at 12 µg/mL (RSV, Long strain): 6.73; log reduction at 25 µg/mL (RSV, Long strain): 6.57
Cc1cccc(N2C(=O)CC(Cc3ccc(Cl)cc3)C2=O)c1Cl (centres unmarked) [AB00292352]	> 25 mg/L	8.56 mg/L	log reduction at 3 µg/mL (RSV, Long strain): 1.22; log reduction at 5 µg/mL (RSV, Long strain): 2.31; log reduction at 12 µg/mL (RSV, Long strain): 3.82; log reduction at 25 µg/mL (RSV, Long strain): 5.9
O=c1c2c([nH]c3ccccc13)-c1ccccc1-n1c(nc3ccccc3c1=O)C2 [AB00700560]	> 50 µM	11.3 µM	
O=C(Nc1ccccc1)N1CCc2cc([N+](=O)[O-])ccc21 [AB00705281]			log reduction at 5 µg/mL (RSV, Long strain): 4.75; log reduction at 12 µg/mL (RSV, Long strain): 4.2; log reduction at 25 µg/mL (RSV, Long strain): 5.56; log reduction at 50 µg/mL (RSV, Long strain): 5.9
Cc1cc(C)n(-c2ccc(C(=O)Nc3cc(Cl)ccc3C)cc2)n1 [AB00712667]	> 50 µM	24 µM	
CCOC(=O)C1=C(C)NC(C)=C(C(=O)OCC)C1C(=O)OCC(=O)Nc1c(Cl)cccc1Cl [AB00712684]	> 50 µM	21.9 µM	
CSc1ccc(Cl)c(C(=O)Nc2ccc(N3CCCCC3)cc2)c1 [AB00717474]	> 50 µM	12.2 µM	
C=CC/N=c1\scc(-c2ccc(C)cc2)n1/N=C/c1ccccn1 [AB00718339]	> 50 µM	1.14 µM	
CCOC(=O)c1ccccc1NC(=O)c1cc(S(=O)(=O)N(CC)c2ccccc2)ccc1Cl [AB00718457]	> 50 µM	23.8 µM	
Cc1ccc(O)c(C(=O)c2cc(C(=O)Nc3ccccc3C)c(=O)n(-c3ccccc3C)c2)c1 [AB00719359]	> 50 µM	29.8 µM	
Cc1ccc(-c2csc(NC(=O)COC(=O)c3cccc(Cl)c3)n2)cc1C [AB00720414]	> 50 µM	49.1 µM	
CC(C)(C)C1CCc2nc3ccccc3c(C(=O)OCC(=O)Nc3ccc(C#N)cc3)c2C1 (centres unmarked) [AB00721928]	> 50 µM	41.9 µM	
C/C(N)=C(/C#N)C(=O)COC(=O)c1ccccc1SCC(=O)NC1CCCCCCC1 [AB00723775]	> 50 µM	23.4 µM	
C/C(N)=C(/C#N)C(=O)CSc1nnc2c(Cl)cc(C(F)(F)F)cn12 [AB00724801]	> 50 µM	16.2 µM	
O=C(COC(=O)c1c2c(nc3ccccc13)/C(=C/c1cccs1)CC2)NCC(F)(F)F [AB00725240]	> 50 µM	43.3 µM	
CCOc1ccccc1/C=C(\C#N)c1nc2sc3c(c2c(=O)[nH]1)CCCC3 [AB00726710]	> 50 µM	30.9 µM	
CCc1ccc(Nc2nnc(SCC(=O)Nc3cc(OC)c([N+](=O)[O-])cc3C)s2)cc1 [AB00728303]	> 50 µM	28.3 µM	

SMILES	CC50 at 6 days [1]	EC50 [2]	also measured
C/C(N)=C(/C#N)C(=O)CSc1nc2sc3c(c2c(=O)n1-c1ccccc1C(F)(F)F)CCCCC3 [AB00728757]	> 50 µM	18.1 µM	
COCCn1c(SCC(=O)NC2CCCc3ccccc32)nnc1-c1cccc(C)c1 (centres unmarked) [AB00728760]	> 50 µM	37.9 µM	
O=C(CCNC(=O)c1ccc(Br)cc1)NC1CCCc2ccccc21 (centres unmarked) [AB00739576]	> 50 µM	24.7 µM	
CCN(c1ccccc1)S(=O)(=O)c1cccc(C(=O)Nc2nccs2)c1 [AB00739796]	> 50 µM	22.2 µM	
C=CCn1c(SC(C)C(=O)Nc2cc(C(F)(F)F)ccc2Cl)nnc1-c1ccccc1OC (centres unmarked) [AB00741842]	> 50 µM	26.7 µM	
COc1ccc(-c2nc(CSc3nnc(C4CC4)n3C3CC3)cs2)cc1 [AB00747970]	> 50 µM	10.8 µM	
Cc1cccc(NC(=O)COC(=O)c2ccc(F)cc2N)c1C [AB00756405]	> 50 µM	11.5 µM	
O=C(c1cccc(OC(F)F)c1)N1CCc2cc([N+](=O)[O-])ccc21 [AB00764110]	> 50 µM	41.5 µM	
CC(=O)Nc1cc(C(=O)CSc2nc3ccccc3n2C)ccc1O [AB00766545]	> 50 µM	26.2 µM	
COc1cccc(Nc2nnc(SCC(=O)/C(C#N)=C(\C)N)s2)c1 [AB00767910]	> 50 µM	6.07 µM	
O=C(COc1ccc(Cl)c(Cl)c1)Nc1cccc(C(=O)NC2CC2)c1 [AB00784993]	> 50 µM	12 µM	
Cc1noc(C)c1S(=O)(=O)N1CCN(Cc2ccccc2C#N)CC1 [AB00785032]	> 50 µM	46.5 µM	
Cc1ccc(-c2csc3ncn(Cc4cc(=O)oc5cc(Br)ccc45)c(=O)c23)cc1 [AB00785889]	> 50 µM	23.4 µM	
Cc1ccc2c(Cn3cnc4scc(-c5ccc(Br)cc5)c4c3=O)cc(=O)oc2c1 [AB00796961]	> 50 µM	31.9 µM	
Cc1ccc2c(Cn3cnc4scc(-c5ccc(F)cc5)c4c3=O)cc(=O)oc2c1 [AB00796970]	> 50 µM	10.6 µM	
COc1cc(SC)ccc1C(=O)Nc1ccc(C(=O)NC2CC2)cc1 [AB00797753]	> 50 µM	29.9 µM	
CC(=O)Nc1ccc(S(=O)(=O)N(C)CC(=O)Nc2ccccc2Oc2ccccc2)cc1 [AB00798716]	> 50 µM	49.8 µM	
NCc1cn2ccccc2n1 [AB00877180]	> 50 µM	15.1 µM	
Clc1ccccc1OCc1noc(-c2cccs2)n1 [AB00877365]	> 50 µM	38.8 µM	
O=C(CCc1ccccc1)Nc1sc2c(c1C(=O)O)CCC2 [AB00877405]	> 50 µM	27.8 µM	
CNc1ncnc2c1ncn2[C@@H]1C[C@H](CO)[C@H](O)[C@@H]1O [SRI-4711]	> 50 µM	24.5 µM	
